Consider three compounds from patent publication US20150343007A1, “EDIBLE COMPOSITION COMPRISING AN EXTRACT OF INULA RACEMOSA AND NARINGIN” (CONOPCO, INC. D/B/A UNILEVER, priority 2012, published 2015).

The structures appear in SMILES notation.

The target of the test is T1, human recombinant Dipeptidyl peptidase-IV (DPP-IV) enzyme (Homo sapiens, UniProt P27487).
T1 construct: purchased PROSPEC ISRAEL ENZ 375
T1 sequence (P27487 whole entry): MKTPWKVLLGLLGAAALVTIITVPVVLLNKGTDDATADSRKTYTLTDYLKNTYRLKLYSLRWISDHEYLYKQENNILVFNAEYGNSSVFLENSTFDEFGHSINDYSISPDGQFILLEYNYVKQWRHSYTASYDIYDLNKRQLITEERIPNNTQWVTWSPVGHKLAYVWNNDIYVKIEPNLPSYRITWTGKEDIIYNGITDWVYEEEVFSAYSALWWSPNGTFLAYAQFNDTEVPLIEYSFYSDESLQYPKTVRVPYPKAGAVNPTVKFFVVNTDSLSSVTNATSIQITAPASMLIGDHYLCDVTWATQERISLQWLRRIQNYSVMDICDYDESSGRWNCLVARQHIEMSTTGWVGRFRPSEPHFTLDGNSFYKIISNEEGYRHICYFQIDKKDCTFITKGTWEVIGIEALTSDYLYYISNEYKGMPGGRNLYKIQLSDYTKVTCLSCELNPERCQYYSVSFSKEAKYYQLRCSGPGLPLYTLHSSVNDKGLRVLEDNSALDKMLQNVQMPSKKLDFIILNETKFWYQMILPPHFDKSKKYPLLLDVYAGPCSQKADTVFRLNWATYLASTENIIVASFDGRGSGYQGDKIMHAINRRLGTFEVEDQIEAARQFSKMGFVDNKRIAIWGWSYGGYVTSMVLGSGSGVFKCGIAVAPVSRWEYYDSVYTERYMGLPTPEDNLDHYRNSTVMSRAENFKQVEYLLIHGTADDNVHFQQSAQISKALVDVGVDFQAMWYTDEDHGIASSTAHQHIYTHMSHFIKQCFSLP
The test is described as follows: Invitro DPP-4 Enzyme Assay (Gly-Pro p-NA substrate, absorbance at 405 nm). The class given is biochemical. Particulars: 4 ng DPP-IV per well, 200 μl/well TRIS-HCl pH 8, 37° C., 1 hr; sample amounts (μg/well) per Table 1; Control 3 = 100% activity. On the procedure:
A 96 well plate (NEST Biotechnology Co. Ltd, Cat No 701001) was taken. In each well of 96 well plate extract of Inula racemosa (as prepared above), Naringin (SIGMA, Cat. No: N1376) and the combination of extract of Inula racemosa and naringin were put in varied concentration as per Table 1. In each well, 4 ng of human recombinant Dipeptidyl peptidase-IV (DPP-IV) enzyme (PROSPEC ISRAEL, Cat. No. ENZ 375) was also added. After that, the final volume was made up to 200 μl/well using TRIS-HCl buffer of pH-8. The TRIS-HCl buffer was prepared by adding 2.42 g of TRIS (Tris hydroxyl methyl amino methane; Supplier: Sisco Research Laboratory ltd, Cat No 2044122) base, 0.372 g of EDTA (SIGMA, Cat No E6758) and 5.644 g of NaCl in 900 mL of autoclaved milli-Q water (Millipore® India) and stirred it till it get dissolved (˜30 minutes). After that the pH of the solution was adjusted to 8.0 using HCl acid and then the volume of the solution was made up to 1000 mL with autoclaved milli-Q water.
The enzyme and combinations of extract of Inula racemosa and naringin were mixed for 1 min using microplate reader (BIO-RAD LAB INDIA, Model No. 680) and incubated in an incubator (Thermo Scientific, Model 3111; conditions: at 37° C.) for 10 minutes. After that the enzymatic reaction was initiated by adding 10 μL/well of the 19 mM of substrate Glycine-Proline para nitroanilide (Gly-Pro p-NA) (this is equivalent to GLP-1). Gly-Pro-p NA is a universally accepted and commercially available substrate for the enzyme DPP-4, due to the lack of availability of commercially available chromogenic GLP-1. We have used Gly-Pro-p NA in the assay which is equivalent to GLP-1. […]
All the above reaction mixture was again incubated for 1 hr in the same incubator under the same condition. […] After this the absorbance was measured at a wavelength of 405 nm using microplate reader (BIO-RAD LAB INDIA, Model No. 680). […]
The % activities of the DPP-4 for the other samples were calculated using the following formula:
The % inhibitions by the samples were then calculated by subtracting the activity from 100.
In general, % Inhibition refers to the relative decrease from the control value, in per cent. In the case of `C[C@@H]1OC(OC2C(O)[C@H](O)C(CO)O[C@H]2Oc2cc(O)c3c(c2)O[C@H](c2ccc(O)cc2)CC3=O)[C@H](O)C(O)C1O` (single isomer, unassigned) [D, 4,5,7-Trihydroxyflavanone 7-rhamnoglucoside], the “% Inhibition” value is 18.11%. Turning to `C[C@@H]1O[C@@H](O[C@H]2[C@H](Oc3cc(O)c4c(c3)O[C@H](c3ccc(O)cc3)CC4=O)O[C@H](CO)[C@@H](O)[C@@H]2O)[C@H](O)[C@H](O)[C@H]1O` [B, 4,5,7-Trihydroxyflavanone 7-rhamnoglucoside], the “% Inhibition” value came out at 18.54%. The figure for `C[C@@H]1O[C@@H](O[C@H]2[C@H](Oc3cc(O)c4c(c3)O[C@H](c3ccc(O)cc3)CC4=O)O[C@H](CO)[C@@H](O)[C@@H]2O)[C@H](O)[C@H](O)[C@H]1O` [C, 4,5,7-Trihydroxyflavanone 7-rhamnoglucoside] is 18.43%.
